Experimental findings from publication PMC12578881, “Pan-cancer Myc modulator that targets Myc-α-tubulin interaction to drive selective mitotic catastrophe” (Scientific Reports, 2025) are described below.

SMILES strings stand for the structures.

The target in test [1] is T1, c-Myc Micro-Tag (Myc-MicroTag) (Homo sapiens, UniProt P01106).
T1 construct: 15-residue Micro-Tag at C-terminus; transiently expressed in HEK293; Triton X-100 lysate
Put plainly: Micro-Tag thermal-shift target engagement (enzyme complementation). The test is classed as biochemical.

In test [2] the target is T2, recombinant Myc protein (full length c-Myc) (Homo sapiens, UniProt P01106).
T2 construct: full length recombinant protein, gift of A. Chinnaiyan
T2 sequence (P01106 whole entry): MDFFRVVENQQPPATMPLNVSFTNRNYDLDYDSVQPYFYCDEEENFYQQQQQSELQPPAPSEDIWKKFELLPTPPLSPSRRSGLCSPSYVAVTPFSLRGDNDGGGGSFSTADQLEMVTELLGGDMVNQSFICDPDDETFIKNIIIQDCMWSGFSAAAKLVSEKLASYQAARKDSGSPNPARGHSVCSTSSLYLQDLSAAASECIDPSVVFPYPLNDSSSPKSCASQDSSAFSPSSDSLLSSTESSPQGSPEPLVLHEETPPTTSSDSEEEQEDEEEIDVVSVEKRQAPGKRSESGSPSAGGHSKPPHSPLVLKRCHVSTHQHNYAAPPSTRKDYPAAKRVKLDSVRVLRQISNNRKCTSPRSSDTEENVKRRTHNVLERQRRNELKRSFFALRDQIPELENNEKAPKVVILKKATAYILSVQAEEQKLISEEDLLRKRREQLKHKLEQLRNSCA
Put plainly: competitive fluorescence polarization against 10074-G5. The test is classed as binding. To be noted: 10 µM Myc, 10 µM 10074-G5, DL78 20-60 µM, 30 min room temperature; site unproven, competitive or allosteric.

T1 sequence (P01106 whole entry): as above

Broadly, the EC50 is the concentration giving half of the maximal effect. As to `COc1ccc2oc(C(=O)c3c(C)oc4ccc(OC)cc34)cc2c1` [DL78, (5-methoxy-2-methylbenzofuran-3-yl)(5-methoxybenzofuran-2-yl)methanone], the EC50 in test [1] turned out to be 1800 nM. In addition, the “competitive fluorescence polarization against 10074-G5” value in test [2] is recorded as “DL78 competed with 10074-G5 in a dose dependent manner”.
